Test results as given in patent US7288535B2, “Methods and compositions for stimulating bone growth using nitric oxide releasing bisphosphonate conjugates” (OsteoScreen, Inc., priority 2002, dated 2007).
Read-outs that look alike come from different tables or passages of the source. Marks after values point to notes of the source that are not given here.

Columns and labels:
[1] = test system: Neonatal Murine Calvariae; settings: mean ± standard error (n=5)
Experimental: (§1) An assay for bone resorption or bone formation is similar to that described by Gowen M. & Mundy G., J Immunol (1986) 136:2478-82. Briefly, four days after birth, the front and parietal bones of ICR Swiss white mouse pups are removed by microdissection and split along the sagittal suture. […] The medium used when the assay is conducted to assess bone formation is Fitton and Jackson Modified BGJ Medium (Sigma) supplemented with 6 ug/ml insulin, 6 ug/ml transferrin, 6 ng/ml selenous acid, calcium and phosphate concentrations of 1.25 and 3.0 mM, respectively, and ascorbic acid to a concentration of 100 ug/ml is added every two days. The incubation is conducted at 37° C. in a humidified atmosphere of 5% CO2 and 95% air for 96 hours.
The bones are removed from the incubation media and fixed in 10% buffered formalin for 24-48 hours, decalcified in 14% EDTA for 1 week, processed through graded alcohols; and embedded in paraffin wax. Three μm sections of the calvaria are prepared. Representative sections are selected for histomorphometric assessment of bone formation or bone resorption. Bone changes are measured on sections cut 200 μm apart. Osteoblasts and osteoclasts are identified by their distinctive morphology.
Selected compounds and appropriate controls were assayed in vitro (ex vivo) for bone formation activity (described above in “Techniques for Neonatal Mouse Calvaria Assay (in vitro)). Histomorphometrical assessments of ex vivo calvaria were carried out using an OsteoMetrics bone morphometry measurement program, according to the manufacturer's instructions. Measurements were determined using either a 10- or 20-fold objective with a standard point counting eyepiece graticule.
New bone formation was determined (using a 20× objective) by measuring the new bone area formed in one field in 3 representative sections of each bone (4 bones per group). Each measurement was carried out ½ field distance from the end of the suture. Both total bone and old bone area were measured. Data were expressed as new bone width in mm.
Osteoblast numbers are determined by point counting. The number of osteoblast cells lining the bone surface on both sides of the bone are counted in one field using a 20× objective. Data are expressed as osteoblast numbers/mm of bone surface.

[2] = test system: neonatal murine calvarial incubation media; settings: mean ± standard error (n=5)
Experimental: as §1
These neonatal murine calvaria do contain measurable levels of alkaline phosphatase and this can be measured either from the calvaria itself or to some degree in the incubation media as a semi-quantitative measurement of bone formation activity. For measurement of alkaline phosphatase activity in the media, 50 ul is removed at the end of the assay. The activity is then measured using standard alkaline phosphatase reagents.
Alkaline phosphatase activity is measured in the incubation media as detailed described above in “Techniques for Neonatal Mouse Calvaria Assay (in vitro)).

human stomach = settings: healthy volunteers, doses prescribed for osteoporosis and Pagets disease of bone; cited from earlier work

With `O=C(NCCCC(O)(P(=O)(O)O)P(=O)(O)O)c1ccc(CO[N+](=O)[O-])cc1` [NOX-Alendronate, [4-(4′-nitrooxymethyl)benzoylamino-1-hydroxybutylidene]-bis-phosphonate] the “Cell Number/0.3 mm bone” value ([1]; 0.1 uM) was 104 ± 8 /0.3 mm bone, the “New Bone Area” value ([1]; 0.1 uM) was 3.6 ± 0.6 mm^2 × 10^−3 and the “Cell Number/0.3 mm bone” value ([1]; 1 uM) was 115 ± 5 /0.3 mm bone. For the same molecule, the “New Bone Area” value ([1]; 1 uM) was 4.2 ± 0.4 mm^2 × 10^−3, the “Cell Number/0.3 mm bone” value ([1]; 10 uM) was 132 ± 5 /0.3 mm bone and the “New Bone Area” value ([1]; 10 uM) was 6.7 ± 0.7* mm^2 × 10^−3. The “Cell Number/0.3 mm bone” value ([1]; 100 uM) was 124 ± 2 /0.3 mm bone, the “New Bone Area” value ([1]; 100 uM) was 5.4 ± 0.3* mm^2 × 10^−3 and the “Alkaline Phosphatase OD” value ([2]; 0.1 uM) was 0.029 ± 0.007 OD. The “Alkaline Phosphatase OD” value ([2]; 1 uM) was 0.023 ± 0.001 OD, the “Alkaline Phosphatase OD” value ([2]; 10 uM) was 0.053 ± 0.007 OD and the “Alkaline Phosphatase OD” value ([2]; 100 uM) was 0.072 ± 0.003 OD.

With `NCCCC(O)(P(=O)(O)O)P(=O)(O)O` [Alendronate, (4-animo-1-hydroxybutylidene)bis-phosphonate] the “Cell Number/0.3 mm bone” value ([1]; 0.1 uM) was 98± 6 /0.3 mm bone, the “New Bone Area” value ([1]; 0.1 uM) was 2.9 ± 0.1 mm^2 × 10^−3 and the “Cell Number/0.3 mm bone” value ([1]; 1 uM) was 103± 4 /0.3 mm bone. For the same molecule, the “New Bone Area” value ([1]; 1 uM) was 3.2 ± 0.5 mm^2 × 10^−3, the “Cell Number/0.3 mm bone” value ([1]; 10 uM) was 101± 5 /0.3 mm bone and the “New Bone Area” value ([1]; 10 uM) was 2.7 ± 0.2 mm^2 × 10^−3. The “Cell Number/0.3 mm bone” value ([1]; 100 uM) was 97± 3 /0.3 mm bone, the “New Bone Area” value ([1]; 100 uM) was 3.1 ± 0.3 mm^2 × 10^−3 and the “Alkaline Phosphatase OD” value ([2]; 0.1 uM) was 0.030 ± 0.009 OD. The “Alkaline Phosphatase OD” value ([2]; 1 uM) was 0.031 ± 0.010 OD, the “Alkaline Phosphatase OD” value ([2]; 10 uM) was 0.034 ± 0.001 OD and the “Alkaline Phosphatase OD” value ([2]; 100 uM) was 0.038 ± 0.003 OD. The “injury to the stomach” value (human stomach) was “cause erosions and ulcers in the human stomach”.
